Where a name gives a salt, the structure may show the parent alone. Read-outs that look alike come from different tables or passages of the source.

For test [1], the target named is muscarinic receptors. The test is described as follows: Radio ligand binding: displacement of muscarinic agonist 3H-OXO-M (3H-Oxotremorine-M), rat cerebral cortex membranes. On the set-up: species or system Hooded Lister rats. The conditions noted are these: 2 nM 3H-OXO-M, 2 mM magnesium chloride, 37° C., 30 min, pH 7.7, non-specific: 10 μM Oxotremorine.
For test [2], the target named is muscarinic receptors. Type of test: binding, Hooded Lister rats. The conditions noted are these: 0.27 nM 3H-QNB; rat cerebral cortex; 37° C., 30 min; pH 7.7; non-specific: 1 μM Atropine sulphate.

The term IC50 denotes the concentration that inhibits the measured activity by half. High values mean weaker potency in that assay, low ones greater potency in that assay. With `CON=C(C1CC1)C1CN2CCC1CC2` (racemic) [Example E15, (±) 1-Azabicyclo[2.2.2]oct-3-yl cyclopropyl ketone trans-O-methyloxime hydrochloride salt], the IC50 on muscarinic receptors [1] stood at 386 nM; against muscarinic receptors [2], 22200 nM.
Take `CON=C(OC)C1CN2CCC1CC2` (racemic) [Example E2, (±) 1-Azabicyclo2.2.2]oct-3-yl-N-methoxycarboximidic acid methyl ester oxidate salt]: the IC50 at muscarinic receptors [1] was 1000 nM; on muscarinic receptors [2], 8000 nM.
On to `CON=C(C#N)C12CCN(CC1)C2` [Example E12, α-(Methoxyimino)-α-(1-azabicyclo[2.2.1]hept-4-syl)acetonitrilehydrochloride salt], for which the IC50 stood at 21 nM on muscarinic receptors [1] and 2000 nM against muscarinic receptors [2].
As to `CON=C(F)C1CN2CCC1CC2` (racemic) [Example E10, (±) 1-Azabicyclo[2.2.2]oct-3-yl-N-methoxycarboximidoyl fluoride oxalate salt], the IC50 on muscarinic receptors [1] is 34 nM; at muscarinic receptors [2] it was 2110 nM.
Regarding `CON=C(Br)C12CCN(CC1)C2` [Example E13, 1-Azabicyclo[2.2.1]hept-4-yl-N-methoxycarboximidoyl bromide oxalate salt], the IC50 on muscarinic receptors [1] turned out to be 170 nM; on muscarinic receptors [2] it was 10000 nM.
In the same order, the values of `CON=C(C#N)[C@H]1CN2CC[C@H]1C2` (relative stereo) [Example E9, (±) exo-α-(Methoxyimino)-α-(1-azabicyclo[2.2.1]hept-3-yl)acetonitrile hydrochloride salt] are 25 nM and 2100 nM.
For the molecule `CON=C(F)[C@H]1CN2CC[C@H]1C2` (relative stereo) [Example E20, (±) exo-1-Azabicyclo[2.2.1]hept-3-yl-N-methoxy carboximidoyl fluoride oxalate salt], the figures for the IC50 on muscarinic receptors [1] and against muscarinic receptors [2] were 11 nM and 3000 nM, respectively.
Consider `CON=C(Cl)[C@H]1CN2CC[C@H]1C2` (relative stereo) [Example E8, (±) exo-1-Azabicyclo[2.2.1]hept-3-yl-N-methoxycarboximidoyl chloride oxalate salt], for which the concentration for half-maximal inhibition (IC50) at muscarinic receptors [1] was 64 nM; against muscarinic receptors [2], 3330 nM.
Take `CON=C(Br)C12CCCN(CC1)C2` (racemic) [Example E7, (±) 1-Azabicyclo[3.2. ]oct-5-yl-N-methoxycarboximidonyl bromide oxalate salt]: the IC50 was determined as 190 nM on muscarinic receptors [1] and 2850 nM at muscarinic receptors [2].
Turning to `CON=C(Cl)C12CCCN(CC1)C2` (racemic) [Example E5, (±) 1-Azabicyclo[3.2.1]oct-5-yl-N-methoxycarboximidoyl chloride oxalate salt], the IC50 on muscarinic receptors [1] came out at 72 nM; at muscarinic receptors [2] it was 3820 nM.
The matching figures for `CON=C(Cl)C1CN2CCC1CC2` (racemic) [Example E1, (±) 1-Azabicyclo[2.2.2]oct-3-yl-N-methoxycarboximidoyl chloride oxalate salt]: 93 nM and 897 nM.
The matching figures for `C#CC(=NOC)C12CCCN(CC1)C2` (racemic) [Example E4, (±) 1-Azabicyclo[3.2.1]oct-5-yl ethynyl ketone O-methyloxime oxalate salt]: 162 nM and 1460 nM.
In the same order, the values of `CON=C(CC#N)[C@H]1CN2CC[C@H]1C2` (relative stereo) [Example E27, (±) exo- and endo-3-Oxo-3-(1-azabicyclo[2.2.1]hept-3-yl)propionitrile-O-methyl oxime oxalate salts] are 71 nM and 1100 nM.
Turning to `CCON=C(Cl)[C@H]1CN2CC[C@H]1C2` (relative stereo) [Example E21, (±) exo-1-Azabicyclo[2.2.1]hept-3-yl-N-ethoxy carboximidoyl chloride oxalate salt], the IC50 amounted to 570 nM on muscarinic receptors [1] and 15500 nM against muscarinic receptors [2].
The matching figures for `CON=C(Cl)[C@@H]1CN2CC[C@H]1C2` (relative stereo) [Example E16, (±) endo-1-Azabicyclo[2.2.1]hept-3-yl -N-methoxycarboximidoyl chloride oxalate salt]: 99 nM and 7000 nM.
Consider `C#CCON=C(Cl)[C@H]1CN2CC[C@H]1C2` (relative stereo) [Example E24, (±) exo- and endo-1-Azabicyclo[2.2.1]hept-3-yl-N-prop-2-ynyloxycarboximidoyl chloride oxalate salts], for which the IC50 at muscarinic receptors [1] was 112 nM; against muscarinic receptors [2], 2100 nM.
As to `CON=C(Br)[C@@H]1CN2CC[C@H]1C2` (relative stereo) [Example E19, (±) exo- and endo-1-Azabicyclo[2.2.1]hept-3-yl-N-methoxycarboximidoyl bromide oxalate salts], the IC50 came to 127 nM at muscarinic receptors [1] and 3600 nM against muscarinic receptors [2].
In the same order, the values of `CON=C(F)C12CCN(CC1)C2` [Example E14, 1-Azabicyclo[2.2.1]hept-4-yl-N-methoxycarboximidoyl fluoride oxalate salt] are 48 nM and 15500 nM.
On to `CON=C(CC#N)[C@@H]1CN2CC[C@H]1C2` (relative stereo) [Example E28, (±) exo- and endo-3-Oxo-3-(1-azabicyclo[2.2.1]hept-3-yl)propionitrile-O-methyl oxime oxalate salts], for which the results for the IC50 at muscarinic receptors [1] and on muscarinic receptors [2] were 750 nM and 16500 nM, respectively.
With `CON=C(C#N)[C@@H]1CN2CC[C@H]1C2` (relative stereo) [Example E17, (±) endo-α-(Methoxyimino)-α-(1-azabicyclo[2.2.1]hept-3-yl)acetonitrile oxalate salt], the figures for the IC50 on muscarinic receptors [1] and against muscarinic receptors [2] were 16 nM and 3600 nM, respectively.
The matching figures for `CON=C(C#N)C12CCCN(CC1)C2` (racemic) [Example E6, (±) α-(Methoxyimino)-α-(1-azabicyclo[3.2.1]oct-5-yl) acetonitrile hydrochloride salt]: 114 nM and 251 nM.
Take `CCON=C(C#N)[C@H]1CN2CC[C@H]1C2` (relative stereo) [Example E22, (±) exo-α-(Ethoxyimino)-α-(1-azabicyclo[2.2. 1]hept-3-yl)acetonitrile oxalate salt]: the IC50 on muscarinic receptors [1] was determined as 233 nM; at muscarinic receptors [2], 10000 nM.
For `CON=C(Cl)C12CCN(CC1)C2` [Example E11, 1-Azabicyclo[2.2.1]hept-4-yl-N-methoxycarboximidoyl chloride oxalate salt], the IC50 on muscarinic receptors [1] was found to be 38 nM; against muscarinic receptors [2], 9000 nM.
`CON=C(Br)[C@H]1CN2CC[C@H]1C2` (relative stereo) [Example E18, (±) exo- and endo-1-Azabicyclo[2.2.1]hept-3-yl-N-methoxycarboximidoyl bromide oxalate salts]: the results for the IC50 at muscarinic receptors [1] and at muscarinic receptors [2] were 46 nM and 11000 nM, respectively.

Values taken from USRE35593E (priority 1989, dated 1997).
